“And” between values parts separate entries of the source, which are not always exact repeats. Equal values may be shown once. Strand notation (5' to 3'): a small letter for the sugar, then the base; units joined by * are phosphorothioate-linked, units joined directly phosphodiester-linked; [ ] holds rarer units or linkages, { } end groups; capitals alone tell only the bases. k = constrained ethyl (cEt); [5mC] = 5-methylcytosine; d = 2'-deoxy (DNA)
Assays:
human SMAD7 mRNA [1] = test: Antisense inhibition of human SMAD7 mRNA expression in Hep3B cells by 3-10-3 cEt gapmers, 10,000 nM, electroporation (Example 2); assay type: cell-based; conditions: approximately 24 hours; for % inhibition of SMAD7 mRNA expression: electroporation, 10,000 nM antisense oligonucleotide, RTS5062, relative to untreated control cells
How it was run: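 Hep3B, 20,000 cells/well; electroporation, 10,000 nM ASO; ~24 h. Readout: SMAD7 mRNA by qRT-PCR (RTS5062), RIBOGREEN-normalised; % inhibition vs untreated.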

human SMAD7 mRNA [2] = test: Dose-dependent inhibition of human SMAD7 mRNA expression in Hep3B cells (Example 3, Study 1 and 2); assay type: cell-based; conditions: electroporation; for % inhibition of SMAD7 mRNA expression: approximately 16 hours; for IC50: Study 2 (740-20000 nM)
How it was run: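 Hep3B cells, 20,000 per well, electroporated with antisense oligonucleotide at 0.31, 1.25, 5.00 or 20.00 μM (first series) or 0.74, 2.22, 6.67 or 20.00 μM (second series). After ~16 h, SMAD7 mRNA measured by RT-qPCR (RTS5062), normalised to RIBOGREEN total RNA. Percent inhibition vs untreated cells; IC50 derived.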

[3] = Hep3B cells, electroporation with 10,000 nM antisense oligonucleotide, RTS5062, percent inhibition of SMAD7 mRNA relative to untreated control cells
[4] = 740 nM, Study 2, relative to untreated control cells
[5] = SMAD7 mRNA, Hep3B cells, 10,000 nM antisense oligonucleotide, electroporation, primer probe set RTS5062, relative to untreated control cells

Substance	% Inhibition (human SMAD7 mRNA [1]; [3]) [%]	% inhibition of SMAD7 mRNA expression (human SMAD7 mRNA [2]; [4])	% inhibition of SMAD7 mRNA expression (human SMAD7 mRNA [2]; 2220 nM, Study 2)	% inhibition of SMAD7 mRNA expression (human SMAD7 mRNA [2]; 6670.0 nM, Study 2)	% inhibition of SMAD7 mRNA expression (human SMAD7 mRNA [2]; 20000.0 nM, Study 2)	IC50 (human SMAD7 mRNA [2])	% inhibition of SMAD7 mRNA expression (human SMAD7 mRNA [1]; Hep3B cells) [%]	% Inhibition (human SMAD7 mRNA [1]; [5]) [%]
799544 (kT*kT*k[5mC]*dA*dA*d[5mC]*dA*dA*dG*dT*dT*d[5mC]*d[5mC]*k[5mC]*kT*kA; antisense) [compound 799544]	72	19%	38%	54%	73%	4 µM	–	–
799556 (kA*k[5mC]*kA*dA*d[5mC]*dA*dA*dT*dG*d[5mC]*dT*d[5mC]*dT*kG*kG*k[5mC]; antisense) [compound 799556]	–	0%	50%	71%	71%	2 µM	68	–
799563 (kA*kA*kA*dA*d[5mC]*dA*dA*dA*d[5mC]*dA*dA*dG*dG*kG*kT*k[5mC]; antisense) [compound 799563]	–	32%	57%	85%	88%	5 µM	68	–
799564 (k[5mC]*kA*kG*dA*dT*dA*dA*d[5mC]*dA*dG*dA*dG*dT*kA*kT*kA; antisense) [compound 799564]	70	13%	41%	60%	73%	3 µM	–	–
799565 (kA*kG*kT*dA*dA*dA*d[5mC]*dA*dA*dT*dA*d[5mC]*d[5mC]*k[5mC]*kT*k[5mC]; antisense) [compound 799565]	79	23%	49%	67%	86%	11 µM	–	–
799566 (kG*kA*kG*dT*dA*dA*dA*d[5mC]*dA*dA*dT*dA*d[5mC]*k[5mC]*k[5mC]*kT; antisense) [compound 799566]	74	0% and 10%	32% and 64%	63% and 82%	–	2 µM and 1 µM	–	89
799568 (k[5mC]*kA*kT*dT*dA*dG*dA*dA*dG*d[5mC]*dT*dT*dT*kG*kA*kG; antisense) [compound 799568]	62	49%	58%	84%	92%	6 µM	–	–
799572 (kA*k[5mC]*k[5mC]*dA*dT*d[5mC]*dT*dA*dA*d[5mC]*dA*dA*d[5mC]*kA*kT*k[5mC]; antisense) [compound 799572]	79	0%	35%	62%	66%	1 µM	–	55
799577 (kT*kT*k[5mC]*d[5mC]*dG*dA*dA*dA*dG*dG*dA*d[5mC]*d[5mC]*k[5mC]*kT*kT; antisense) [compound 799577]	–	35%	64%	75%	86%	2 µM	55	–
799583 (kA*kA*kG*dA*d[5mC]*dA*dA*dA*d[5mC]*d[5mC]*dT*dT*d[5mC]*k[5mC]*kG*kA; antisense) [compound 799583]	74	26% and 31%	61% and 46%	73% and 59%	65% and 83%	3 µM	–	74
799589 (kA*kA*kT*dA*dT*d[5mC]*dT*dG*dT*dG*dT*d[5mC]*dT*kA*k[5mC]*kA; antisense) [compound 799589]	65	15%	58%	77%	82%	4 µM	–	–
799596 (kA*k[5mC]*kT*d[5mC]*dT*dG*dA*dA*d[5mC]*dG*dG*dA*dA*kA*kG*kA; antisense) [compound 799596]	–	14%	35%	66%	83%	5 µM	49	–
799605 (k[5mC]*k[5mC]*kA*dA*dT*dA*dA*dA*dG*dT*dT*d[5mC]*d[5mC]*k[5mC]*kT*kT; antisense) [compound 799605]	56	18%	46%	51%	75%	8 µM	–	–
799607 (k[5mC]*k[5mC]*kA*dT*dT*dT*dA*d[5mC]*dA*dA*dA*dA*d[5mC]*kT*k[5mC]*kT; antisense) [compound 799607]	71	5%	12%	46%	76%	2 µM	–	–
799608 (kA*k[5mC]*kG*dA*dT*d[5mC]*dA*dA*d[5mC]*dT*dT*d[5mC]*dT*kT*kG*kA; antisense) [compound 799608]	70	35%	56%	70%	76%	3 µM	–	–
799624 (kT*kG*kA*dA*dA*dG*dT*dA*d[5mC]*dA*dA*dT*d[5mC]*kT*k[5mC]*k[5mC]; antisense) [compound 799624]	58	2%	50%	77%	89%	6 µM	–	–
799631 (k[5mC]*k[5mC]*kA*dA*dA*dT*d[5mC]*dA*d[5mC]*dA*dA*dA*dG*k[5mC]*kA*kG; antisense) [compound 799631]	82	0%	25%	49%	88%	3 µM	–	–
799663 (antisense kG*k[5mC]*kA*d[5mC]*dA*dG*d[5mC]*d[5mC]*dA*dA*dG*dA*dG*kA*kT*kG) [compound 799663]	57	19%	43%	61%	89%	> 20 µM	–	–
799667 (antisense kA*k[5mC]*kA*dG*dA*dT*dG*d[5mC]*d[5mC]*dA*dG*d[5mC]*dA*kA*kG*kG) [compound 799667]	79	8%	8%	17%	47%	9 µM	–	–
799668 (antisense kG*kA*k[5mC]*dA*dG*dA*dT*dG*d[5mC]*d[5mC]*dA*dG*d[5mC]*kA*kA*kG) [compound 799668]	75	15%	17%	39%	72%	1 µM	–	–

From US10517889B2, “Modulators of SMAD7 expression” (Ionis Pharmaceuticals, Inc., priority 2017, dated 2019)
